Where two headings read alike, the source gives them in different places.
Molecular target: T1, recombinant human 5-HT4 receptor (Homo sapiens, UniProt Q13639)
T1 construct: expressed in transfected cells
Experiment: Determination of EC50 values for 5-HT4 receptor (CHO cells, pCRE-Luc reporter)
Assay type: cell-based
Details: for EC50: 4 hours incubation
Protocol: Determination of EC50 Values for 5-HT4 Receptor
A stable CHO cell line expressing recombinant human 5-HT4 receptor and pCRE-Luc reporter system was used for cell-based assay. The assay offers a non-radioactive based approach to determine binding of a compound to GPCRs. In this specific assay, the level of intracellular cyclic AMP, which is modulated by activation, or inhibition of the receptor is measured. The recombinant cells harbor luciferase reporter gene under the control of cAMP response element.
The above cells were grown in 96 well clear bottom white plates in Hams F12 medium containing 10% fetal bovine serum (FBS). Prior to the addition of compounds or standard agonist, cells were serum starved overnight. Increasing concentrations of test compounds were added in OptiMEM medium to the cells. The incubation was continued at 37° C. in CO2 incubator for 4 hours. Medium was removed and cells were washed with phosphate buffered saline. The cells were lysed and luciferase activity was measured in a Luminometer. Luminescence units were plotted against the compound concentrations using Graphpad software.

[1] = CHO cells, human 5-HT4 receptor, luciferase reporter
[2] = CHO, CHO cells, human 5-HT4 receptor, luciferase reporter, read-out: Emax

T1 sequence (Q13639 whole entry): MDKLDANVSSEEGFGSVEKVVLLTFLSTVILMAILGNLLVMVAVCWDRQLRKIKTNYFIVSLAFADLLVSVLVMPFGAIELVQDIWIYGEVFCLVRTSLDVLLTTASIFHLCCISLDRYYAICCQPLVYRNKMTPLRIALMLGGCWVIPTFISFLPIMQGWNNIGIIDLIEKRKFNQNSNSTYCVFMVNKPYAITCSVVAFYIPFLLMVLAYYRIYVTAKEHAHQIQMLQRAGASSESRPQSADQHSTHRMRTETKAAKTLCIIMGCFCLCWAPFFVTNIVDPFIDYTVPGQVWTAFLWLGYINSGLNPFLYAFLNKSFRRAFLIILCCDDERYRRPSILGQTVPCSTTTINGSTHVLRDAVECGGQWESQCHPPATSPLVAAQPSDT

Row | Compound | EC50 [1] | Emax [2] | Emax (CHO) | Emax [1]
1 | Nc1c(Cl)cc(C(=O)NCC2[C@H]3CN(CC4CCOCC4)C[C@@H]23)c2ncccc12 (mixture of isomers) [Example 15, 5-Amino-6-chloro-N-{[3-(tetrahydro-2H-pyran-4-ylmethyl)-3-azabicyclo[3.1.0]hex-6-yl]methyl}quinoline-8-carboxamide (exo/endo mixture)] | 0.5 nM | 54% |  | 
2 | CC(C)(O)CN1CCC(F)(CNC(=O)c2cc(Br)c(N)c3cccnc23)CC1 [Example 45, 5-Amino-6-bromo-N-{[4-fluoro-1-(2-hydroxy-2-methylpropyl)-4-piperidinyl]methyl} quinoline-8-carboxamide L(+)-tartarate] | 11.8 nM |  | 89% | 
3 | CC(C)(O)CN1CCC(CNC(=O)c2cc(Br)c(N)c3cccnc23)CC1 [Example 44, 5-Amino-6-bromo-N-{[1-(2-hydroxy-2-methylpropyl)-4-piperidinyl]methyl} quinoline-8-carboxamide L(+)-tartarate] | 0.3 nM |  | 52% | 
4 | COCC(C)(C)CN1CCC(CNC(=O)c2cc(Cl)c(N)c3cccnc23)CC1 [Example 55, 5-Amino-6-chloro-N-{[1-(3-methoxy-2,2-dimethylpropyl)-4-piperidinyl]methyl}quinoline-8-carboxamide L(+)-tartarate] | 0.09 nM |  | 72% | 
5 | Nc1c(Cl)cc(C(=O)NCC2CCN(CC3(O)CCOCC3)CC2)c2ncccc12 [Example 26, 5-Amino-6-chloro-N-{[1-(4-hydroxytetrahydro-2H-pyran-4-ylmethyl)-4-piperidinyl]methyl}quinoline-8-carboxamide] |  | 65% |  | 
6 | Nc1c(Cl)cc(C(=O)NCC2CCN(CCF)CC2)c2ncccc12 [Example 52, 5-Amino-6-chloro-N-{[1-(2-fluoroethyl)-4-piperidinyl]methyl}quinoline-8-carboxamide] | 0.41 nM | 63% |  | 
7 | Nc1c(Cl)cc(C(=O)NCC2(O)CCN(CC3(O)CCOCC3)CC2)c2ncccc12 [Example 29, 5-Amino-6-chloro-N-{[4-hydroxy-1-(4-hydroxytetrahydro-2H-pyran-4-ylmethyl)-4-piperidinyl]methyl}quinoline-8-carboxamide L(+)-tartarate] | 0.1 nM |  | 84% | 
8 | Nc1c(Cl)cc(C(=O)NCC2CCN(CC3(F)CCOCC3)CC2)c2ncccc12 [Example 30, 5-Amino-6-chloro-N-{[1-(4-fluorotetrahydro-2-pyran-4-ylmethyl)-4-piperidinyl]methyl}quinoline-8-carboxamide L(+)tartarate] | 0.1 nM |  | 65% | 
9 | CC(C)(O)CN1CCC(F)(CNC(=O)c2cc(Cl)c(N)c3cccnc23)CC1.Cl [Example 38, 5-Amino-6-chloro-N-{[4-fluoro-1-(2-hydroxy-2-methylpropyl)-4-piperidinyl]methyl} quinoline-8-carboxamide hydrochloride] | 1.3 nM |  |  | 54%
10 | CC(C)(O)CN1CC2C(CNC(=O)c3cc(Cl)c(N)c4cccnc34)C2C1 (stereo not drawn) [Example 40, 5-Amino-6-chloro-N-{(3-(2-hydroxy-2-methylpropyl)-3-azabicyclo[3.1.0]hex-6-yl]methyl} quinoline-8-carboxamide L(+)-tartarate] | 3.9 nM |  | 63% | 
11 | Nc1c(Cl)cc(C(=O)NCC2C3CN(CC4CC4)CC23)c2ncccc12 (stereo not drawn) [Example 9, 5-Amino-6-chloro-N-{[3-cyclopropylmethyl-3-azabicyclo[3.1.0]hex-6-yl]methyl} quinoline-8-carboxamide L(+)-tartarate] | 0.8 nM |  | 87% | 
12 | Nc1c(Cl)cc(C(=O)NCC2CCN(C3CCOCC3)CC2)c2ncccc12 [Example 6, 5-Amino-6-chloro-N-{[1-(tetrahydro-2H-pyran-4-yl)-4-piperidinyl]methyl}quinoline-8-carboxamide L(+)-tartarate] | 0.1 nM |  | 56% | 
13 | 5-Amino-6-chloro-N-{[3-(2-fluoro-2-methyl propyl)-3-azabicyclo[3.1.0]hex-6-yl]methyl} quinoline-8-carboxamide [Example 47] | 1.6 nM |  |  | 79%
14 | Nc1c(Br)cc(C(=O)NCC2C3CN(CC4CCOCC4)CC23)c2ncccc12 (stereo not drawn) [Example 17, 5-Amino-6-bromo-N-{[3-(tetrahydro-2H-pyran-4-ylmethyl)-3-azabicyclo[3.1.0]hex-6-yl]methyl}quinoline-8-carboxamide L(+)-tartarate] | 0.8 nM |  | 72% | 
15 | Nc1c(Cl)cc(C(=O)NCC2C3CN(CCO)CC23)c2ncccc12 (stereo not shown) [Example 50, 5-Amino-6-chloro-N-{[3-(2-hydroxyethyl)-3-azabicyclo[3.1.0]hex-6-yl]methyl} quinoline-8-carboxamide] | 1.7 nM | 72% |  | 
16 | Nc1c(Cl)cc(C(=O)NC2CCN(CC3(O)CCOCC3)CC2)c2ncccc12 [Example 24, 5-Amino-6-chloro-N-[1-(4-hydroxytetrahydro-2H-pyran-4-ylmethyl)-4-piperidinyl] quinoline-8-carboxamide] | 4.1 nM | 81% |  | 

Row | Compound | EC50 [1] | Emax [2] | Emax (CHO) | Emax [1]
17 | CC(C)(F)CN1CCC(CNC(=O)c2cc(Cl)c(N)c3cccnc23)CC1 [Example 46, 5-Amino-6-chloro-N-{[1-(2-fluoro-2-methylpropyl)-4-piperidinyl]methyl}quinoline-8-carboxamide] | 0.1 nM | 58% |  | 
18 | Nc1c(Cl)cc(C(=O)NCC2C3CN(CCCO)CC23)c2ncccc12 (stereo not shown) [Example 51, 5-Amino-6-chloro-N-{[3-(3-hydroxypropyl)-3-azabicyclo[3.1.0]hex-6-yl]methyl} quinoline-8-carboxamide] | 1.4 nM | 85% |  | 
19 | Nc1c(Br)cc(C(=O)NCC2CCN(CC3CCOCC3)CC2)c2ncccc12 [Example 16, 5-Amino-6-bromo-N-{[1-(tetrahydro-2H-pyran-4-ylmethyl)-4-piperidinyl]methyl} quinoline-8-carboxamide L(+)-tartarate] | 0.08 nM |  | 62% | 
20 | COC(=O)C(C)(C)CN1CCC(CNC(=O)c2cc(Cl)c(N)c3cccnc23)CC1 [Example 31, 5-Amino-6-chloro-N-{[1-(2-methoxycarbonyl-2-methylpropan-1-yl)-4-piperidinyl]methyl}quinoline-8-carboxamide] | 0.3 nM | 60% |  | 
21 | CC(C)N1CC2C(CNC(=O)c3cc(Cl)c(N)c4cccnc34)C2C1 (stereo not drawn) [Example 10, 5-Amino-6-chloro-N-{[3-isopropyl-3-azabicyclo[3.1.0]hex-6-yl]methyl}quinoline-8-carboxamide L(+)-tartarate] | 1.5 nM |  | 83% | 
22 | Nc1c(Cl)cc(C(=O)NCC2(O)CCN(CC3CCOCC3)CC2)c2ncccc12 [Example 22, 5-Amino-6-chloro-N-{[4-hydroxy-1-(tetrahydro-2H-pyran-4-ylmethyl)-4-piperidinyl]methyl}quinoline-8-carboxamide L(+)-tartarate] | 0.2 nM |  | 86% | 
23 | CC(C)(O)CN1CCC(CNC(=O)c2cc(Cl)c(N)c3cccnc23)CC1 [Example 35, 5-Amino-6-chloro-N-{[1-(2-hydroxy-2-methylpropyl)-4-piperidinyl]methyl}quinoline-8-carboxamide L(+)-tartarate] | 0.1 nM |  | 48% | 
24 | COCCCN1CC2C(CNC(=O)c3cc(Cl)c(N)c4cccnc34)C2C1 (stereo not drawn) [Example 54, 5-Amino-6-chloro-N-{[3-(3-methoxypropyl)-3-azabicyclo[3.1.0]hex-6-yl]methyl}quinoline-8-carboxamide L(+)-tartarate] | 0.7 nM |  | 70% | 
25 | Nc1c(F)cc(C(=O)NCC2CCN(CC3(O)CCOCC3)CC2)c2ncccc12 [Example 28] | 0.1 nM |  | 66% | 
26 | Nc1c(F)cc(C(=O)NCC2CCN(CC3CCOCC3)CC2)c2ncccc12 [Example 11, 5-Amino-6-fluoro-N-{[1-(tetrahydro-2H-pyran-4-ylmethyl)-4-piperidinyl]methyl} quinoline-8-carboxamide L(+)-tartarate] | 0.3 nM |  | 77% | 
27 | Nc1c(Cl)cc(C(=O)NCC2C3CN(CCF)CC23)c2ncccc12 (stereo not shown) [Example 53] | 4.5 nM | 65% |  | 
28 | Nc1c(Cl)cc(C(=O)NCC2C3CN(CC4(O)CCOCC4)CC23)c2ncccc12 (stereo not drawn) [Example 25, 5-Amino-6-chloro-N-{[3-(4-hydroxytetrahydro-2H-pyran-4-ylmethyl)-3-azabicyclo[3.1.0]hex-6-yl]methyl}quinoline-8-carboxamideL(+)-tartarate] | 0.6 nM |  | 93% | 
29 | CC(C)(CN1CCC(CNC(=O)c2cc(Cl)c(N)c3cccnc23)CC1)C(=O)O [Example 32, 5-Amino-6-chloro-N-{[1-(2,2-dimethylproponic acid-3-yl)-4-piperidinyl]methyl}quinoline-8-carboxamide L(+)-tartarate] | 1.2 nM |  | 60% | 
30 | Nc1c(Cl)cc(C(=O)NC2CCN(CC3CCOCC3)CC2)c2ncccc12 [Example 3, 5-Amino-6-chloro-N-[1-(tetrahydro-2H-pyran-4-ylmethyl)-4-piperidinyl]quinoline-8-carboxamide] | 2.5 nM | 79% |  | 
31 | CC(C)(F)CN1CCC(F)(CNC(=O)c2cc(Cl)c(N)c3cccnc23)CC1 [Example 48, 5-Amino-6-chloro-N-{[4-fluoro-1-(2-fluoro-2-methylpropyl)-4-piperidinyl]methyl} quinoline-8-carboxamide] | 8.9 nM | 84% |  | 
